Assay results published in patent EP4741395A1, “NOVEL COMPOUND SENSITIVE TO NITROGEN MONOXIDE AND PHARMACEUTICAL COMPOSITION COMPRISING SAME” (Omniamed Co. Ltd, priority 2023, dated 2025).

How the values were obtained:
splenocytes [1] = experiment: Inhibitory activity on cell proliferation in splenocytes (CCK-8 analysis); type: cell-based, C57BL/6 mouse; details: Mus musculus, Splenocyte, Concanavalin A 5 µg/mL, 72 hours, read-out: Inhibitory Activity on Cell Proliferation (%) (Mean±SD)
[2] = Efficacy on collagen-induced rheumatoid arthritis (arthritis score); type: in vivo, DBA/1 male mice; details: FIG. 7
Experimental: (§1) The experimental animals were 30 8-week-old DBA/1 male mice. […] The number of normal mice was set to five in order to minimize the number of experimental animals. The group administered with Compound (1) consisted of 5 to 6 mice, a minimal number required to obtain statistically meaningful data given the limited amount of the drug.
(§2) In order to establish a rheumatoid arthritis model, 100 µL of a mixture solution in which 2 mg/mL of chick type II collagen and 1 mg/mL of Complete Freund's Adjuvant (CFA) were mixed in a ratio of 1:1 was administered intradermally to each of the mouse tails. After 19 days, 100 µL of an emulsion in which 2 mg/mL of chick type II collagen and Incomplete Freund's Adjuvant (IFA) were mixed in a ratio of 1:1 was administered intradermally to each of the mouse tails.
The test substances of Table 23 were administered orally every day according to the drug dosing period and dosing frequency. As for the rheumatoid arthritis score (arthritis score), the score of each of the four paws was quantified according to the criteria shown in the following Table 24, and the individual scores were summed to generate the final score.
as §1, with “31” for “30”, “(11)” for “(1)”, “5” for “5 to 6”, “drug. Each of the remaining groups consisted of 7 mice, with two extra mice added to account for experimental error.” for “drug.”
as §2
Oral administration was conducted daily according to the dose, dosing frequency and dosing period of Table 25. Based on the criteria shown in Table 24, rheumatoid arthritis score for the four paws were quantified and summed to generate the score.

JAK 1 = JAK 1 (Homo sapiens, UniProt P23458); experiment: JAK Human TK kinase enzymatic radiometric assay (Eurofins), JAK 1; details: value close to 100 indicates low JAK activity of the compound
Chain of JAK 1 (P23458 whole entry): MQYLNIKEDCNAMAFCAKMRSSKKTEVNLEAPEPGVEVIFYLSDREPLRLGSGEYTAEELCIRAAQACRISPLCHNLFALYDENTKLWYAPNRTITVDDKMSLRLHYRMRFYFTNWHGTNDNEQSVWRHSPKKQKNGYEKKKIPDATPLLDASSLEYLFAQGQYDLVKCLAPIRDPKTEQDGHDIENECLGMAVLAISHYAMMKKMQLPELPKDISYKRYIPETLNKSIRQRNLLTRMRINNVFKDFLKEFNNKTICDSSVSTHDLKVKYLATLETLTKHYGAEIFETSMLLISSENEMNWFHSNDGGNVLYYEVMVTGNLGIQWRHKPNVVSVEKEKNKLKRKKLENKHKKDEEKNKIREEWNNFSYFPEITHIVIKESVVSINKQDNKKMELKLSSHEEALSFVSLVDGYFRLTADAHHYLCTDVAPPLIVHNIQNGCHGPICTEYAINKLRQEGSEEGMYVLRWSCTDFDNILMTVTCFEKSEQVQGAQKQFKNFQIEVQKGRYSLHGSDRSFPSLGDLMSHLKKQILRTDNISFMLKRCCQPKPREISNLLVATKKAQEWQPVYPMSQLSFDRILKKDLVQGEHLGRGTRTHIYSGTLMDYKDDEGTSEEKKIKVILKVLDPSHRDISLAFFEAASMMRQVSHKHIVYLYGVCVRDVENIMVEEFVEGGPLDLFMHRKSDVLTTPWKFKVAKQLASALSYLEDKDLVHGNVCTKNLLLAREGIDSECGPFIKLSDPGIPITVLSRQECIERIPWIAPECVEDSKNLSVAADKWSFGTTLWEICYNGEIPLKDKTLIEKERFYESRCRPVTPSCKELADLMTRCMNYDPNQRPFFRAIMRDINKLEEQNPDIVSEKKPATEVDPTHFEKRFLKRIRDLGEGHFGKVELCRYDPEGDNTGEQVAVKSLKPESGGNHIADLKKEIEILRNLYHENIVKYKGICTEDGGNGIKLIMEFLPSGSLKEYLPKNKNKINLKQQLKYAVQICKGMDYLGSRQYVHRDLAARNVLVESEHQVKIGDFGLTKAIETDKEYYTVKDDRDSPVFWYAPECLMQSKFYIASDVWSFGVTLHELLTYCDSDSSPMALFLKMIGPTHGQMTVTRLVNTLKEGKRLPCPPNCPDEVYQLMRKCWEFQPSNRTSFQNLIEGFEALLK

JAK 2 = molecular target: T1, JAK 2 (Homo sapiens, UniProt O60674); experiment: JAK Human TK kinase enzymatic radiometric assay (Eurofins), JAK 2; type: biochemical; set-up: unit not given here; details: value close to 100 indicates low JAK activity of the compound
T1 construct: purchased Eurofins Scientific (assay service)
T1 sequence (O60674 whole entry): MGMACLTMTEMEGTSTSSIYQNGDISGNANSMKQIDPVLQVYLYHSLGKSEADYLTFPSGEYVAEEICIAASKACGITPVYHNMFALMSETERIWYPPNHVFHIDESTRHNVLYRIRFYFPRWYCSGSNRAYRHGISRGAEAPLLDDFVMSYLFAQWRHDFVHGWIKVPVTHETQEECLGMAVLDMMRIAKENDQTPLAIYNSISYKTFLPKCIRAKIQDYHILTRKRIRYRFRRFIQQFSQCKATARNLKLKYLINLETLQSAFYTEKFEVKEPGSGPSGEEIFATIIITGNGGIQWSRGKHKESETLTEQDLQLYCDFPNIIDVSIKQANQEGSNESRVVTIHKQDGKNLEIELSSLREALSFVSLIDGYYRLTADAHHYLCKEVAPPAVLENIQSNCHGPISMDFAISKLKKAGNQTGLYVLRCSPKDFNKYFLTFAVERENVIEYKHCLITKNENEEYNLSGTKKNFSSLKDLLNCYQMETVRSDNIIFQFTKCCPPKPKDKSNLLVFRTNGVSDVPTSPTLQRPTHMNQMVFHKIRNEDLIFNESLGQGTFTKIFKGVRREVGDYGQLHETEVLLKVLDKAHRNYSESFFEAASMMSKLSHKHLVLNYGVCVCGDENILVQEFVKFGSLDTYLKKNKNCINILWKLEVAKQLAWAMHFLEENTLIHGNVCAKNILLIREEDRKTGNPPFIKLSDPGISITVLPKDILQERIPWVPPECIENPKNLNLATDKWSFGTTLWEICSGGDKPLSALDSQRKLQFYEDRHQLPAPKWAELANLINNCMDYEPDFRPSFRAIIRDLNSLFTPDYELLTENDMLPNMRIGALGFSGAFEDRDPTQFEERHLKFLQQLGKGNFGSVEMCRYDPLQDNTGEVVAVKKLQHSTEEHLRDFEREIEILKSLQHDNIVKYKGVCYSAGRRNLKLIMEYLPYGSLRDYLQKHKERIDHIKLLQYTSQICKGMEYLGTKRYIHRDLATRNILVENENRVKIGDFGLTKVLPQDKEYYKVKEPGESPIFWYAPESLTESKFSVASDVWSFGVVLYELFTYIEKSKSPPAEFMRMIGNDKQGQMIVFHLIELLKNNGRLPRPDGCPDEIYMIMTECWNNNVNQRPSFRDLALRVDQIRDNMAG
Text: (§3) For the compounds of the Examples, JAK activity of each of the compounds was verified using the JAK Human TK Kinase Enzymatic Radiometric Kinase Profiler Assay service provided by Eurofins Scientific.
(§4) The activity was verified after inducing a reaction at the JAK 1, 2 and 3 active sites using radioactively labeled ATP.

IFN-γ = IFN-γ reduction activity in Concanavalin A-treated splenocytes (quantitative ELISA); type: cell-based, C57BL/6 mouse; details: Mus musculus, Splenocyte, Concanavalin A 5 µg/mL, 72 hours, read-out: IFN-γ Reduction Activity (%) (Mean±SD)
Experimental: (§5) A spleen was isolated from an 8-week-old C57BL/6 mouse, and splenocytes were isolated using a physical method.
(§6) The separated splenocytes were diluted to a concentration of 5×10^6 cells/mL in a RPMI 1640 medium including 10% FBS, 100 U/mL of penicillin and 100 µg/mL of streptomycin, and the diluted splenocytes were dispensed at 500 µL/well into a 48-well plate and 100 µL/well into a 96-well plate, and cultured for 72 hours in an incubator. The splenocytes were treated with Concanavalin A (5 µg/mL) when dispensed to induce an immune response, and herein, […] of the pharmaceutical composition including the compound according to each of the Examples was also added thereto. After 72 hours, the supernatant was collected, and the level of remaining NO was checked through a Griess assay, and calculated by the following Equation 4.
NO is one of important inflammatory mediators, and may increase the level of inflammatory cytokine. Concanavalin A (5 µg/mL), which induces an immune response in splenocytes, and the compound of each of Examples were treated in a concentration-dependent manner to check whether the level of IFN-γ, a representative inflammatory cytokine, was reduced. The supernatant was collected 72 hours after the treatment, and analyzed using a quantitative enzyme-linked immunosorbent assay (Quantitative-ELISA).

splenocytes [3] = experiment: NO scavenging activity in Concanavalin A-treated splenocytes (Griess assay); type: cell-based, C57BL/6 mouse; details: Mus musculus, Splenocyte, Concanavalin A 5 µg/mL, 72 hours, read-out: NO Scavenging Activity (%) (Mean±SD)
Experimental: as §5, §6

Raw 264.7 cell line = experiment: NO scavenging activity in LPS-treated immune cells (Griess reagent); type: cell-based; details: Mus musculus, RAW264.7, Raw 264.7, LPS 500 ng/mL, 24 hours, read-out: NO Scavenging Activity (%) (Mean±SD)
JAK 3 = molecular target: T2, JAK 3 (Homo sapiens, UniProt P52333); experiment: JAK Human TK kinase enzymatic radiometric assay (Eurofins), JAK 3; type: biochemical; set-up: unit not given here; details: value close to 100 indicates low JAK activity of the compound
T2 construct: purchased Eurofins Scientific (assay service)
T2 sequence (P52333 1-1124): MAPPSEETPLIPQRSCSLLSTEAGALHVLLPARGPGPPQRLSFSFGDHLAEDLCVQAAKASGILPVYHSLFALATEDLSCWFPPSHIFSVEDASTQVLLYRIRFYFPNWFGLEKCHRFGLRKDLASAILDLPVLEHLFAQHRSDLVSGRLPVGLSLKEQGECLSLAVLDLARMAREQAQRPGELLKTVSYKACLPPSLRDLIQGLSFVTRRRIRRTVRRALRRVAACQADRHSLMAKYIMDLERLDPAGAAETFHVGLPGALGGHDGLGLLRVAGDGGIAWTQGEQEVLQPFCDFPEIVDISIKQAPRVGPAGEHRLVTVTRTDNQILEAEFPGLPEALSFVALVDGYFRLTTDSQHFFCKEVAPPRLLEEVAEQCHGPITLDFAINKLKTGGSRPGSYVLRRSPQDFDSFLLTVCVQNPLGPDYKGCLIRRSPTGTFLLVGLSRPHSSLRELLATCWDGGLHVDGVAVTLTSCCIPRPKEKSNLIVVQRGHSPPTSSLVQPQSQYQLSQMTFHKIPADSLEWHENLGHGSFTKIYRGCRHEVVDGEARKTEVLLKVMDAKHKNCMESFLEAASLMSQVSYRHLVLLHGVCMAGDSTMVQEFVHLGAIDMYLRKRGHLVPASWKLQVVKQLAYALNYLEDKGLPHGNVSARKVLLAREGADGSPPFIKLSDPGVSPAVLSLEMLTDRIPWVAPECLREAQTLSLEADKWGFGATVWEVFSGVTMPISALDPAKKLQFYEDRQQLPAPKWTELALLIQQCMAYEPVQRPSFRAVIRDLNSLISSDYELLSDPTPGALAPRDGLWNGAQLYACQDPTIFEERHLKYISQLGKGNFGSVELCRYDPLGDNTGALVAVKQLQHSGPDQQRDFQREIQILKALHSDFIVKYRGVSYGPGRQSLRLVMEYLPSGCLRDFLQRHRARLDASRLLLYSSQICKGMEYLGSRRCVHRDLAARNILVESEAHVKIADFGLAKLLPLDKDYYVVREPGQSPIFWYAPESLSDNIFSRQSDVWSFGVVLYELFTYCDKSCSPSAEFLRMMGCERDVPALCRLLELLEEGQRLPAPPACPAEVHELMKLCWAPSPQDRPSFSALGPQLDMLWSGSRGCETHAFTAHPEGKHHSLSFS
Text: as §3, §4

IL-6 (Interleukin-6) = experiment: Inhibition of inflammatory cytokine secretion in LPS-treated immune cells (IL-6 sandwich ELISA); type: cell-based; details: Mus musculus, RAW264.7, Raw 264.7, LPS 500 ng/mL, 24 hours, read-out: IL-6 Reduction Activity (%) (Mean±SD)
Experimental: Raw 264.7 cell line was seeded in a 48-well plate at a density of 8×10^4 cells/well, and cultured at 37°C in a DMEM medium including 10% FBS, 100 U/mL of penicillin and 100 µg/mL of streptomycin.
The medium was cultured overnight, and then replaced with a fresh medium including 10 µM of the pharmaceutical composition sensitive to nitrogen monoxide including the compound of each of Examples 1 and 11 to 13 and 500 ng/mL of LPS, and the fresh medium was cultured again for another 24 hours.
Lastly, the supernatant was collected, and then the level of IL-6 (Interleukin-6) expression was analyzed using a Sandwich enzyme-linked immunosorbent assay (ELISA). Specifically, a standard solution and 50 µL of the diluted supernatant were introduced to each well of a well plate coated with an antibody specific to IL-6, and after binding IL-6 to the immobilized antibody, the well was washed with a washing buffer, followed by a reaction with HRP as a secondary antibody for 30 minutes at room temperature. The well was washed three times with a washing buffer, then color was developed using TMB (3,3', 5,5'-tetramethyl benzidine) as a substrate, and the reaction was stopped using 1 M sulfuric acid to measure the degree of color development at an absorbance of 450 nm.

JAK 1 Activity (JAK 1; 0.1 nM)	JAK 1 Activity (JAK 1; 1 nM)	JAK 1 Activity (JAK 1; 10 nM)	JAK 1 Activity (JAK 1; 100 nM)	JAK 2 Activity (JAK 2; 0.1 nM)	JAK 2 Activity (JAK 2; 1 nM)	JAK 2 Activity (JAK 2; 10 nM)	JAK 2 Activity (JAK 2; 100 nM)	JAK 3 Activity (JAK 3; 0.1 nM)	JAK 3 Activity (JAK 3; 1 nM)	JAK 3 Activity (JAK 3; 10 nM)	JAK 3 Activity (JAK 3; 100 nM)	SMILES	inhibition at 10 µM (splenocytes [1]) [%]	rheumatoid arthritis-alleviating efficacy compared with tofacitinib ([2]; 20 mg/kg oral once daily (QD) vs tofacitinib 10 mg/kg BID, entire 40-day period)	rheumatoid arthritis-alleviating efficacy (arthritis score), statistics ([2]; 20 mg/kg oral once daily (QD))	activity at 10 µM (IFN-γ) [%]	activity at 10 µM (splenocytes [3]) [%]	activity at 10 µM (Raw 264.7 cell line) [%]	activity at 10 µM (IL-6 (Interleukin-6)) [%]
108	103	105	101	91	99	89	98	103	103	98	94	C[C@@H]1CCN(C(=O)CC#N)C[C@@H]1N(C)c1ncnc2c1ccn2C(=O)N(C(=O)Nc1ccccc1N)c1ccccc1N [Example 11, N-(2-aminophenyl)-N-((2-aminophenyl)carbamoyl)-4-(((3R,4R)-1-(2-cyanoacetyl)-4-methylpiperidin-3-yl)(methyl)amino)-7H-pyrrolo[2,3-d]pyrimidine-7-carboxamide]	49.7 ± 3.78	alleviating efficacy comparable to that of tofacitinib	no statistical differences were verified	57.6 ± 15.5	67.7 ± 0.84	48.7 ± 0.01	–
109	110	103	81	108	111	102	92	114	107	111	88	Cc1ccc(NC(=O)N(C(=O)n2ccc3c(N(C)[C@H]4CN(C(=O)CC#N)CC[C@H]4C)ncnc32)c2ccc(C)cc2N)c(N)c1 [Example 12, N-(2-amino-4-methylphenyl)-N-((2-amino-4-methylphenyl)carbamoyl)-4-(((3R,4R)-1-(2-cyanoacetyl)-4-methylpiperidin-3-yl) (methyl)amino)-7H-pyrrolo[2,3-d]pyrimidine-7-carboxamide]	64 ± 6.17	–	–	97 ± 0.05	64.6 ± 3.65	31.7 ± 0.15	61.7 ± 1.85
110	113	106	89	120	107	102	104	113	109	112	92	COc1ccc(NC(=O)N(C(=O)n2ccc3c(N(C)[C@H]4CN(C(=O)CC#N)CC[C@H]4C)ncnc32)c2ccc(OC)cc2N)c(N)c1 [Example 13, N-(2-amino-4-methoxyphenyl)-N-((2-amino-4-methoxyphenyl)carbamoyl)-4-(((3R,4R)-1-(2-cyanoacetyl)-4-methylpiperidin-3-yl) (methyl)amino)-7H-pyrrolo[2,3-d]pyrimidine-7-carboxamide]	16.1 ± 2.7	–	–	89.7 ± 0.57	66.9 ± 5.06	34.7 ± 0.28	63.1 ± 1.23
